Test results published in ChEMBL document CHEMBL5247626, “In vitro and in vivo biological evaluation of newly synthesized multi-target 20(R)-panaxadiol derivatives for treating Alzheimer's disease” (Eur J Med Chem, 2022).
The source made the active and inactive calls. No cut-off for these calls is given here.

Experiments:
[1] = C0 in Sprague-Dawley rat at 10 mg/kg,iv measured at 0.083 to 24 hrs post administration by LC-MS/MS analysis; format: ADME, organism-based; conditions: in vivo, time 0.083-24 hrs
Mus musculus = experiment: Antialzheimer activity against amyloid beta (25 to 35)-induced cognitive deficit ICR mouse model assessed as increase in discrimination index at 25 mg/kg,po observed after 1 hr of administration by novel object recognition test; format: functional, organism-based
PC-12 = experiment: Neuroprotective activity against amyloid beta (25 to 35)-induced rat PC12 cells assessed as decrease in total tau protein expression level at 7.5 to 30 uM preincubated for 30 mins followed by amyloid beta (25 to 35) addition and measured after 24 hrs by western blot assay; format: functional, cell-based; conditions: dose 7.5-30 µM, time 24.5 hrs
[2] = Half life in Sprague-Dawley rat at 10 mg/kg,iv measured at 0.083 to 24 hrs post administration by LC-MS/MS analysis; format: ADME, organism-based; conditions: in vivo, time 0.083-24 hrs

C0 [1]: 237 µg/mL
half-life [2]: 2.6 h
SMILES: CC1(C)CCC[C@](C)([C@H]2CC[C@]3(C)[C@@H]2[C@H](O)C[C@@H]2[C@@]4(C)CC[C@H](OC(=O)NCc5ccccc5)C(C)(C)[C@@H]4CC[C@]23C)O1
Activity (Mus musculus): inactive
Activity (PC-12): Active
